Counter-ions that a name gives are not always drawn.
Experiments:
normotensive rat = assay: blood pressure lowering effect in normotensive rats (i.v.); type: in vivo; settings: iv, read-out: dose that lowers blood pressure (as low as)
Experimental: (§1) Indicative of in vivo adenosine receptor agonist activity, the hypotensive activity of the compounds of the invention as well as their effect on heart rate can be measured in normotensive or spontaneous hypertensive rats on intravenous or oral administration.
Typically, the blood pressure lowering effect in normotensive rats can be determined as follows:
Adult male rats weighing 300-400 g are anesthetized using Inactin (100 mg/kg, i.p.). A femoral artery and contralateral vein are cannulated for direct blood pressure measurement and i.v. drug administration, respectively. Animals are allowed a 15 minute equilibration period before testing. Vehicle (1 ml/kg, i.v.) is administered over a 30 second period followed by a 0.3 ml saline flush administered over a 30 second period. Changes in diastolic blood pressure are recorded using a Beckman polygraph while heart rate is recorded as a derivative of the blood pressure pulse. The test compound is administered in the same manner as vehicle and a dose response curve is established. Percent changes in heart rate and blood pressure are recorded.

[1] = tested on: spontaneous hypertensive rat; assay: blood pressure lowering effect in the spontaneous hypertensive rat (oral); type: in vivo; settings: p.o., read-out: dose that lowers blood pressure (as low as)
Experimental: as §1
The blood pressure lowering effect in the spontaneous hypertensive rat is determined on oral administration.

[2] = target: T1, adenosine-2 (A-2) receptor (Rattus norvegicus, UniProt P30543); assay: in vitro adenosine-2 (A-2) receptor binding: inhibition of specific 3H-NECA binding in rat striatal membranes; set-up: species or system male Sprague-Dawley rats; settings: 4 nM 3H-NECA, in presence of 50 nM cyclopentyladenosine
T1 construct: striatal membrane preparations from corpus striatum of male Sprague-Dawley rats; from tissue; host or cells: corpus striatum membranes of male Sprague-Dawley rats
T1 sequence (P30543 whole entry): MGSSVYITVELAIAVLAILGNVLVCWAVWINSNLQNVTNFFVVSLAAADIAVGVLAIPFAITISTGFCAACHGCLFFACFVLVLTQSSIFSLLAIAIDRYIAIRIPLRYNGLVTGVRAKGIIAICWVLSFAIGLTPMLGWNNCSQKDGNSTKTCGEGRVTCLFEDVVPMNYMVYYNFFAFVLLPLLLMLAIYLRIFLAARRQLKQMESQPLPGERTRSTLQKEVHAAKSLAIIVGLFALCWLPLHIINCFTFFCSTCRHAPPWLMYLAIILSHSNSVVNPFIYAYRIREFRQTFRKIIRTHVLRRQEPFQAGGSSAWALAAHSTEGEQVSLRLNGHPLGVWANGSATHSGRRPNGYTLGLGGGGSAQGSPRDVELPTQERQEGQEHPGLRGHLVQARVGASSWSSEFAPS
Experimental: The concentration of a particular compound required to displace the specific binding of 4 nM ^3 H-NECA is determined in the presence of 50 nM cyclopentyladenosine.

IC50 [2] [nM]	Structure (SMILES)	minimal effective dose (normotensive rat) [mg/kg]	minimal effective dose [1] [mg/kg]
–	CCNC(=O)[C@H]1O[C@@H](n2cnc3c(N)nc(NCCc4ccc(CCC(=O)O)cc4)nc32)[C@H](O)[C@@H]1O [Example 2g, 2-[p-(2-carboxyethyl)-2-phenethylamino]-adenosine5'-(N-ethyl)-carboxamide]	~0.005	~3
~13	CCNC(=O)[C@H]1O[C@@H](n2cnc3c(N)nc(NCCC4CCCCC4)nc32)[C@H](O)[C@@H]1O [Example 2n, 2-(2-cyclohexylethylamino)-adenosine-5'-(N-ethyl)carboxamide hydrochloride]	–	–

Source: patent US4968697A, “2-substituted adenosine 5'-carboxamides as antihypertensive agents” (Ciba-Geigy Corporation, priority 1989, dated 1990)
